In patent US7700606B2, “Imidazole amines as inhibitors of β-secretase” (Wyeth LLC, priority 2006, dated 2010):

Key:
[1] = target: human BACE1 (Homo sapiens, UniProt P56817); assay: Fluorescent kinetic enzyme assay, inhibition of BACE1 (WABC-6 peptide substrate); type: biochemical; details: 10 nM enzyme, 25 μM substrate, pH 4.5, room temperature
Method: (§1) Evaluation of the Enzyme Activity of Test Compounds and the Inhibition of hBACE1, MuBACE1 and hBACE2 by Test Compounds
Dilution and mixing steps: total reaction volume: 100 μL • 1. […] 100 μM substrate dilution in 1× PBS is prepared, • 4.
Fluorescence Readings: Readings at λex 320 nm and λem 420 nm are taken every 40-sec for 30 min at room temperature to determine the linear slope for substrate cleavage rate (vi).

[2] = target: T1, human BACE2 (Homo sapiens, UniProt Q9Y5Z0); assay: Fluorescent kinetic assay for human recombinant BACE 2 (WABC-6 peptide substrate); type: biochemical; details: for IC50: 1.5 nM enzyme, 25 μM substrate, pH 4.5, room temperature
T1 sequence (Q9Y5Z0 63-518): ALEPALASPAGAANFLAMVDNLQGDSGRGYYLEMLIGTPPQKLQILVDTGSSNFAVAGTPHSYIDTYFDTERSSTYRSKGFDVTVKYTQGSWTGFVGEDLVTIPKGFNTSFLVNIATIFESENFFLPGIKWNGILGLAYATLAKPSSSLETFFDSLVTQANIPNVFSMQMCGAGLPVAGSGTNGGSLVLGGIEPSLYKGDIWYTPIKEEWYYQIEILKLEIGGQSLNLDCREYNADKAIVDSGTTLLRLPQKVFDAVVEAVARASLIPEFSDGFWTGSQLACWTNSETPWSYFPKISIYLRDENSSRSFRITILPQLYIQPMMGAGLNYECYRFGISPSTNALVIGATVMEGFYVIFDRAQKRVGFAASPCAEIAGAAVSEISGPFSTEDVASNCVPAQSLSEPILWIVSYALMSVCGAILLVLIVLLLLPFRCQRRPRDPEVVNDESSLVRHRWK
Method: as §1
Assay Conditions: 10 nM human BACE1 (or 10 nM Murine BACE1, 1.5 nM human BACE2) 25 μM substrate (WABC-6, MW 1549.6, from AnaSpec); final buffer conditions: 50 mM Na-Acetate, pH 4.5, 0.05% CHAPS, 25% PBS; temperature: room temperature; reagent information: Na-Acetate: Aldrich, Cat.#24,124-5 CHAPS: Research Organics, Cat. #1304C 1× PBS: Mediatech (Cellgro), Cat#21-031-CV; peptide substrate AbzSEVNLDAEFRDpa: AnaSpec, Peptide Name: WABC-6; determination of stock substrate (AbzSEVNLDAEFRDpa) concentration: a 25 mM stock solution in dimethyl sulfoxide (DMSO) is prepared using the peptide weight and MW and diluted to 25 μM. The concentration is determined by absorbance at 354 nm using an extinction coefficient ε of 18172 M^−1 cm^−1, The substrate stock is stored in small aliquots at −80° C. [Substrate Stock]=ABS^354 nm*10^6/18172 (in mM)
Calculation of % Inhibition: % Inhibition=100*(1−vi/v0) • (vi=substrate cleavage rate in the presence of inhibitor, • v0=substrate cleavage rate in the absence of inhibitor) IC50 Determination: % Inhibition=[(B*IC50^n)+(100*I0^n)]/(IC50^n+I0^n), Fluorescent Kinetic Assay for Human Recombinant BACE 2
This assay is used to provide kinetic and selectivity parameters for the analyses of the tested compounds.
Materials and methods: final assay conditions: 10 nM human BACE1 (or 10 nM Murine BACE1, 1.5 nM human BACE2) 25 μM Substrate (WABC-6, MW 1549.6, from AnaSpec). Final buffer conditions: 50 mM Na-Acetate, pH 4.5, 0.05% CHAPS, 25% PBS. Temperature: room temperature. Reagent Information: Na-Acetate: Aldrich, Cat.#24,124-5 CHAPS: Research Organics, Cat. #1304C 1× PBS: Mediatech (Cellgro), Cat#21-031-CV Peptide Substrate AbzSEVNLDAEFRDpa: AnaSpec, Peptide Name: WABC-6
Determination of stock substrate (AbzSEVNLDAEFRDpa) concentration: A 25 mM stock solution in DMSO is prepared using the peptide weight and MW, and diluted to 25 μM. The concentration is determined by absorbance at 354 nm using an extinction coefficient ε of 18172 M^−1cm^−1. The substrate stock is stored in small aliquots at −80° C. [Substrate Stock]=ABS^354 nm*10^6/18172 (in mM)
Determination of stock enzyme concentration: The stock concentration of each enzyme is determined by ABS at 280 nm using ε of 64150 M^−1cm^−1 for hBACE1 and MuBACE1, 62870 M^−1cm^−1 for hBACE2 in 6 M guanidinium hydrochloride (from Research Organics, Cat. #5134G-2), pH 6. (The extinction coefficient ε^280 nm for each enzyme is calculated based on known amino acid composition and published extinction coefficients for Trp ([…]) and Tyr ([…]) residues (Anal. Biochem. 182, 319-326).)
Dilution and Mixing Steps: Total Reaction Volume: 100 μL • 1. 2× inhibitor dilutions in buffer A (66.7 mM Na-Acetate, pH 4.5, 0.0667% CHAPS) are prepared, • 2. 4× enzyme dilution in buffer A (66.7 mM Na-Acetate, pH 4.5, 0.0667% CHAPS) are prepared, • 3. 100 μM substrate dilution in 1× PBS, 50 μL 2× Inhibitor and 25 μL 100 μM substrate are added to each well of 96-well plate (from DYNEX Technologies, VWR #: 11311-046), then immediately 25 μL 4× enzyme is added to the inhibitor and substrate mixer and the fluorescence readings are initiated.
Fluorescence Readings: Readings at λex 320 nm, λem 420 nm are taken every 40-sec for 30 min at room temperature and to determine the linear slope for substrate cleavage rate (vi).
Analysis of calculation of % inhibition: % Inhibition=100*(1−vi/v0) • vi=substrate cleavage rate in the presence of inhibitor, • v0=substrate cleavage rate in the absence of inhibitor) • IC50 Determination: % Inhibition=((B*IC50^n)+(100*I0^n))/(IC50^n+I0^n),
Unless otherwise noted, the IC50 value represents the value obtained at […].

Sequence of human BACE1 (P56817 46-501): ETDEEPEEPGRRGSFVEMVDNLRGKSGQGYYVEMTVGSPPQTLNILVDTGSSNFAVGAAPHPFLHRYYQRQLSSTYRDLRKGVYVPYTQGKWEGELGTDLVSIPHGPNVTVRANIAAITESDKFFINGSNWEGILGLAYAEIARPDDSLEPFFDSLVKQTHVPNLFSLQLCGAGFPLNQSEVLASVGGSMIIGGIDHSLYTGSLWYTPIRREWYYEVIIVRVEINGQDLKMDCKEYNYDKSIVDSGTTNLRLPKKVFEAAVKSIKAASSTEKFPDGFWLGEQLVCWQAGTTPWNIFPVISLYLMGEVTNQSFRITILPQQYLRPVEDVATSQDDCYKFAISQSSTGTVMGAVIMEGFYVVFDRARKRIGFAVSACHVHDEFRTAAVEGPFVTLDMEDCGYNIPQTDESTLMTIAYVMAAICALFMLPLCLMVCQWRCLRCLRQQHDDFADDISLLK

SMILES | IC50 [1] | IC50 [2] | melting point | inhibition at 25 µM [2]
CCn1cc(C2(c3cccc(-c4cccnc4F)c3)N=C(N)N3CCCN=C32)cn1 (stereo not drawn) [Example 3, 8-(1-Ethyl-1H-pyrazol-4-yl)-8-[3-(2-fluoropyridin-3-yl)phenyl]-2,3,4,8-tetrahydroimidazo[1,5-a]pyrimidin-6-amine] | 90 nM | 3520 nM | 91 to 115 °C | –
CCc1cc(C2(c3cccc(-c4cccnc4F)c3)N=C(N)N3CCCN=C32)cc(CC)n1 (stereo not drawn) [Example 2, 8-(2,6-Diethylpyridin-4-yl)-8-[3-(2-fluoropyridin-3-yl)phenyl]-2,3,4,8-tetrahydroimidazo[1,5-a]pyrimidin-6-amine] | 10 nM | – | 174 to 176 °C | 38%
NC1=NC(c2cccc(-c3cccnc3F)c2)(c2cnn(CC(F)(F)F)c2)C2=NCCCN12 (stereo not drawn) [Example 4, 8-[3-(2-Fluoropyridin-3-yl)phenyl]-8-[1-(2,2,2-trifluoroethyl)-1H-pyrazol-4-yl]-2,3,4,8-tetrahydroimidazo[1,5-a]pyrimidin-6-amine] | 80 nM | 5120 nM | 106 to 116 °C | –
NC1=NC(c2ccc(OC(F)(F)F)cc2)(c2cccc(-c3cccnc3F)c2)C2=NOCCN12 (stereo not drawn) [Example 5, 8-[3-(2-Fluoropyridin-3-yl)phenyl]-8-[4-(trifluoromethoxy)-phenyl]-3,4-dihydro-8H-imidazo[5,1-c][1,2,4]oxadiazin-6-amine] | 30 nM | 2020 nM | 102 to 117 °C | –
NC1=NC(c2ccc(OC(F)(F)F)cc2)(c2cccc(-c3cncc(F)c3)c2)C2=NCCON12 (stereo not drawn) [Example 6, 8-[3-(5-Fluoropyridin-3-yl)phenyl]-8-[4-(trifluoromethoxy)phenyl]-2,8-dihydro-3H-imidazo[1,5-b][1,2,4]oxadiazin-6-amine] | 50 nM | 1190 nM | 120 to 135 °C | –
NC1=NC(c2ccncc2)(c2cccc(-c3cccnc3F)c2)C2=NCCCN12 (stereo not drawn) [Example 1, 8-[3-(2-Fluoropyridin-3-yl)phenyl]-8-pyridin-4-yl-2,3,4,8-tetrahydroimidazo[1,5-a]pyrimidin-6-amine] | 520 nM | – | 125 to 131 °C | 51%
